Source: the NIST ThermoML archive (doi:10.1016/j.fluid.2008.03.004)
± gives the expanded uncertainty stated by the source.

Assay: xn = mol fraction of the nth substance listed
Settings: 101 kPa, Liquid; for speed of sound: Sing-around technique in a fixed-path interferometer

## CCOC(C)(C)C [2-ethoxy-2-methylpropane] + Cc1ccccc1C
288.15 K, x1 = 0.055
  speed of sound: 1371.2 ± 2.2 m/s
  mass density: 875.654 ± 0.38 kg/m3
288.15 K, x1 = 0.098
  speed of sound: 1357.8 ± 2.2 m/s
  mass density: 870.017 ± 0.39 kg/m3
288.15 K, x1 = 0.201
  speed of sound: 1324.8 ± 2.2 m/s
  mass density: 855.684 ± 0.41 kg/m3
288.15 K, x1 = 0.307
  speed of sound: 1290.1 ± 2.2 m/s
  mass density: 840.866 ± 0.43 kg/m3
288.15 K, x1 = 0.4
  speed of sound: 1261.6 ± 2.2 m/s
  mass density: 827.772 ± 0.45 kg/m3
288.15 K, x1 = 0.502
  speed of sound: 1228.9 ± 2.2 m/s
  mass density: 813.516 ± 0.47 kg/m3
288.15 K, x1 = 0.601
  speed of sound: 1199 ± 2.2 m/s
  mass density: 800.311 ± 0.49 kg/m3
288.15 K, x1 = 0.661
  speed of sound: 1180.1 ± 2.2 m/s
  mass density: 791.943 ± 0.5 kg/m3
288.15 K, x1 = 0.803
  speed of sound: 1137.4 ± 2.2 m/s
  mass density: 772.557 ± 0.53 kg/m3
288.15 K, x1 = 0.895
  speed of sound: 1110.2 ± 2.2 m/s
  mass density: 759.896 ± 0.55 kg/m3
288.15 K, x1 = 0.947
  speed of sound: 1095 ± 2.2 m/s
  mass density: 752.872 ± 0.56 kg/m3
288.15 K, x1 = 1
  speed of sound: 1076.4 ± 2.2 m/s
  mass density: 744.955 ± 0.55 kg/m3
290.65 K, x1 = 0.055
  speed of sound: 1360.8 ± 2.2 m/s
  mass density: 873.542 ± 0.39 kg/m3
290.65 K, x1 = 0.098
  speed of sound: 1347.3 ± 2.2 m/s
  mass density: 867.884 ± 0.39 kg/m3
290.65 K, x1 = 0.201
  speed of sound: 1314.3 ± 2.2 m/s
  mass density: 853.503 ± 0.41 kg/m3
290.65 K, x1 = 0.307
  speed of sound: 1279.4 ± 2.2 m/s
  mass density: 838.637 ± 0.44 kg/m3
290.65 K, x1 = 0.4
  speed of sound: 1251 ± 2.2 m/s
  mass density: 825.503 ± 0.45 kg/m3
290.65 K, x1 = 0.502
  speed of sound: 1218.2 ± 2.2 m/s
  mass density: 811.198 ± 0.47 kg/m3
290.65 K, x1 = 0.601
  speed of sound: 1188.2 ± 2.2 m/s
  mass density: 797.952 ± 0.49 kg/m3
290.65 K, x1 = 0.661
  speed of sound: 1169.2 ± 2.2 m/s
  mass density: 789.556 ± 0.51 kg/m3
290.65 K, x1 = 0.803
  speed of sound: 1126.4 ± 2.2 m/s
  mass density: 770.105 ± 0.53 kg/m3
290.65 K, x1 = 0.895
  speed of sound: 1099.4 ± 2.2 m/s
  mass density: 757.404 ± 0.55 kg/m3
290.65 K, x1 = 0.947
  speed of sound: 1084.5 ± 2.2 m/s
  mass density: 750.354 ± 0.56 kg/m3
290.65 K, x1 = 1
  speed of sound: 1065.1 ± 2.2 m/s
  mass density: 742.482 ± 0.56 kg/m3
293.15 K, x1 = 0.055
  speed of sound: 1350.4 ± 2.2 m/s
  mass density: 871.419 ± 0.39 kg/m3
293.15 K, x1 = 0.098
  speed of sound: 1336.8 ± 2.2 m/s
  mass density: 865.74 ± 0.4 kg/m3
293.15 K, x1 = 0.201
  speed of sound: 1303.8 ± 2.2 m/s
  mass density: 851.313 ± 0.42 kg/m3
293.15 K, x1 = 0.307
  speed of sound: 1268.7 ± 2.2 m/s
  mass density: 836.397 ± 0.44 kg/m3
293.15 K, x1 = 0.4
  speed of sound: 1240.4 ± 2.2 m/s
  mass density: 823.223 ± 0.46 kg/m3
293.15 K, x1 = 0.502
  speed of sound: 1207.4 ± 2.2 m/s
  mass density: 808.871 ± 0.48 kg/m3
293.15 K, x1 = 0.601
  speed of sound: 1177.3 ± 2.2 m/s
  mass density: 795.578 ± 0.5 kg/m3
293.15 K, x1 = 0.661
  speed of sound: 1158.3 ± 2.2 m/s
  mass density: 787.156 ± 0.51 kg/m3
293.15 K, x1 = 0.803
  speed of sound: 1115.4 ± 2.2 m/s
  mass density: 767.641 ± 0.54 kg/m3
293.15 K, x1 = 0.895
  speed of sound: 1088.5 ± 2.2 m/s
  mass density: 754.895 ± 0.56 kg/m3
293.15 K, x1 = 0.947
  speed of sound: 1073.5 ± 2.2 m/s
  mass density: 747.821 ± 0.57 kg/m3
293.15 K, x1 = 1
  speed of sound: 1053.7 ± 2.2 m/s
  mass density: 739.947 ± 0.56 kg/m3
295.65 K, x1 = 0.055
  speed of sound: 1339.8 ± 2.2 m/s
  mass density: 869.295 ± 0.39 kg/m3
295.65 K, x1 = 0.098
  speed of sound: 1326.3 ± 2.2 m/s
  mass density: 863.594 ± 0.4 kg/m3
295.65 K, x1 = 0.201
  speed of sound: 1293.2 ± 2.2 m/s
  mass density: 849.119 ± 0.42 kg/m3
295.65 K, x1 = 0.307
  speed of sound: 1257.9 ± 2.2 m/s
  mass density: 834.156 ± 0.44 kg/m3
295.65 K, x1 = 0.4
  speed of sound: 1229.6 ± 2.2 m/s
  mass density: 820.937 ± 0.46 kg/m3
295.65 K, x1 = 0.502
  speed of sound: 1196.5 ± 2.2 m/s
  mass density: 806.537 ± 0.48 kg/m3
295.65 K, x1 = 0.601
  speed of sound: 1166.3 ± 2.2 m/s
  mass density: 793.199 ± 0.5 kg/m3
295.65 K, x1 = 0.661
  speed of sound: 1147.3 ± 2.2 m/s
  mass density: 784.75 ± 0.51 kg/m3
295.65 K, x1 = 0.803
  speed of sound: 1104.3 ± 2.2 m/s
  mass density: 765.167 ± 0.54 kg/m3
295.65 K, x1 = 0.895
  speed of sound: 1077.3 ± 2.2 m/s
  mass density: 752.377 ± 0.56 kg/m3
295.65 K, x1 = 0.947
  speed of sound: 1062.5 ± 2.2 m/s
  mass density: 745.278 ± 0.57 kg/m3
295.65 K, x1 = 1
  speed of sound: 1042.2 ± 2.2 m/s
  mass density: 737.374 ± 0.56 kg/m3
298.15 K, x1 = 0.055
  speed of sound: 1329.3 ± 2.2 m/s
  mass density: 867.167 ± 0.4 kg/m3
298.15 K, x1 = 0.098
  speed of sound: 1315.8 ± 2.2 m/s
  mass density: 861.446 ± 0.4 kg/m3
298.15 K, x1 = 0.201
  speed of sound: 1282.7 ± 2.2 m/s
  mass density: 846.922 ± 0.42 kg/m3
298.15 K, x1 = 0.307
  speed of sound: 1247.3 ± 2.2 m/s
  mass density: 831.91 ± 0.45 kg/m3
298.15 K, x1 = 0.4
  speed of sound: 1218.9 ± 2.2 m/s
  mass density: 818.651 ± 0.47 kg/m3
298.15 K, x1 = 0.502
  speed of sound: 1185.7 ± 2.2 m/s
  mass density: 804.2 ± 0.48 kg/m3
298.15 K, x1 = 0.601
  speed of sound: 1155.5 ± 2.2 m/s
  mass density: 790.817 ± 0.5 kg/m3
298.15 K, x1 = 0.661
  speed of sound: 1136.4 ± 2.2 m/s
  mass density: 782.341 ± 0.52 kg/m3
298.15 K, x1 = 0.803
  speed of sound: 1093.3 ± 2.2 m/s
  mass density: 762.689 ± 0.54 kg/m3
298.15 K, x1 = 0.895
  speed of sound: 1066.3 ± 2.2 m/s
  mass density: 749.853 ± 0.56 kg/m3
298.15 K, x1 = 0.947
  speed of sound: 1051.4 ± 2.2 m/s
  mass density: 742.726 ± 0.57 kg/m3
298.15 K, x1 = 1
  speed of sound: 1031 ± 2.2 m/s
  mass density: 734.806 ± 0.57 kg/m3
300.65 K, x1 = 0.055
  speed of sound: 1318.9 ± 2.2 m/s
  mass density: 865.039 ± 0.4 kg/m3
300.65 K, x1 = 0.098
  speed of sound: 1305.5 ± 2.2 m/s
  mass density: 859.296 ± 0.41 kg/m3
300.65 K, x1 = 0.201
  speed of sound: 1272.3 ± 2.2 m/s
  mass density: 844.725 ± 0.43 kg/m3
300.65 K, x1 = 0.307
  speed of sound: 1236.7 ± 2.2 m/s
  mass density: 829.661 ± 0.45 kg/m3
300.65 K, x1 = 0.4
  speed of sound: 1208.3 ± 2.2 m/s
  mass density: 816.36 ± 0.47 kg/m3
300.65 K, x1 = 0.502
  speed of sound: 1175 ± 2.2 m/s
  mass density: 801.859 ± 0.49 kg/m3
300.65 K, x1 = 0.601
  speed of sound: 1144.7 ± 2.2 m/s
  mass density: 788.431 ± 0.51 kg/m3
300.65 K, x1 = 0.661
  speed of sound: 1125.5 ± 2.2 m/s
  mass density: 779.923 ± 0.52 kg/m3
300.65 K, x1 = 0.803
  speed of sound: 1082.3 ± 2.2 m/s
  mass density: 760.203 ± 0.55 kg/m3
300.65 K, x1 = 0.895
  speed of sound: 1055.2 ± 2.2 m/s
  mass density: 747.321 ± 0.57 kg/m3
300.65 K, x1 = 0.947
  speed of sound: 1040.3 ± 2.2 m/s
  mass density: 740.169 ± 0.58 kg/m3
300.65 K, x1 = 1
  speed of sound: 1019.8 ± 2.2 m/s
  mass density: 732.225 ± 0.57 kg/m3
303.15 K, x1 = 0.055
  speed of sound: 1308.4 ± 2.2 m/s
  mass density: 862.904 ± 0.4 kg/m3
303.15 K, x1 = 0.098
  speed of sound: 1295.2 ± 2.2 m/s
  mass density: 857.143 ± 0.41 kg/m3
303.15 K, x1 = 0.201
  speed of sound: 1262 ± 2.2 m/s
  mass density: 842.523 ± 0.43 kg/m3
303.15 K, x1 = 0.307
  speed of sound: 1226.2 ± 2.2 m/s
  mass density: 827.409 ± 0.45 kg/m3
303.15 K, x1 = 0.4
  speed of sound: 1197.8 ± 2.2 m/s
  mass density: 814.064 ± 0.47 kg/m3
303.15 K, x1 = 0.502
  speed of sound: 1164.3 ± 2.2 m/s
  mass density: 799.512 ± 0.49 kg/m3
303.15 K, x1 = 0.601
  speed of sound: 1133.9 ± 2.2 m/s
  mass density: 786.037 ± 0.51 kg/m3
303.15 K, x1 = 0.661
  speed of sound: 1114.7 ± 2.2 m/s
  mass density: 777.502 ± 0.52 kg/m3
303.15 K, x1 = 0.803
  speed of sound: 1071.3 ± 2.2 m/s
  mass density: 757.711 ± 0.55 kg/m3
303.15 K, x1 = 0.895
  speed of sound: 1044.2 ± 2.2 m/s
  mass density: 744.78 ± 0.57 kg/m3
303.15 K, x1 = 0.947
  speed of sound: 1029.1 ± 2.2 m/s
  mass density: 737.602 ± 0.58 kg/m3
303.15 K, x1 = 1
  speed of sound: 1008.6 ± 2.2 m/s
  mass density: 729.647 ± 0.57 kg/m3
305.65 K, x1 = 0.055
  speed of sound: 1298 ± 2.2 m/s
305.65 K, x1 = 0.098
  speed of sound: 1285 ± 2.2 m/s
305.65 K, x1 = 0.201
  speed of sound: 1251.6 ± 2.2 m/s
305.65 K, x1 = 0.307
  speed of sound: 1215.8 ± 2.2 m/s
305.65 K, x1 = 0.4
  speed of sound: 1187.3 ± 2.2 m/s
305.65 K, x1 = 0.502
  speed of sound: 1153.6 ± 2.2 m/s
305.65 K, x1 = 0.601
  speed of sound: 1123.1 ± 2.2 m/s
305.65 K, x1 = 0.661
  speed of sound: 1103.9 ± 2.2 m/s
305.65 K, x1 = 0.803
  speed of sound: 1060.3 ± 2.2 m/s
305.65 K, x1 = 0.895
  speed of sound: 1033.2 ± 2.2 m/s
305.65 K, x1 = 0.947
  speed of sound: 1018 ± 2.2 m/s
305.65 K, x1 = 1
  speed of sound: 997.52 ± 2.2 m/s
